{"source": "ChEMBL document CHEMBL1134908", "about": "“Synthesis of cholesterol-carborane conjugate for targeted drug delivery” (Bioorg Med Chem Lett, 2002)", "tested_on": "Cancer cell lines", "assay": "The cytotoxicity in liposomal formulation was determined on the SF-763 human glioma cancer cell line", "format": "functional, cell-based", "data": [{"substance": "Cholesteryl 1,12-dicarba-closo-dodecaborane-1-carboxylate (BCH)", "values": [{"measurement": "Viable cells", "value": 98.5, "unit": "%"}]}]}
